# Laboratory results reported in ChEMBL document CHEMBL1201862, “PubChem BioAssay data set” (2004).
#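 Values below derive from 48-hour exposures of cells grown in 96-well plates, with endpoints linearly interpolated between the two concentrations bracketing the appropriate inhibition level. Here, GI50 denotes the concentration required for 50% inhibition of growth.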 Calls of active or inactive are those of the source. Rule as the data show it: active = GI50 up to about 1.1 µM and inactive = higher.
# Tests used:
# Assay in all cases: NCI-60 cell line screen, 48 h
# Hs-578T = tested on: Hs-578T
# A549 = tested on: A549
# ACHN = tested on: ACHN
# BT-549 = tested on: BT-549
# SK-MEL-28 = tested on: SK-MEL-28
# MDA-MB-231 = tested on: MDA-MB-231
# SNB-19 = tested on: SNB-19
# LOX IMVI = tested on: LOX IMVI
# NCI/ADR-RES = tested on: NCI/ADR-RES
# COLO 205 = tested on: COLO 205
# SF-539 = tested on: SF-539
# HL-60 = tested on: HL-60
# 786-0 = tested on: 786-0
# MOLT-4 = tested on: MOLT-4
# NCI-H226 = tested on: NCI-H226
# OVCAR-8 = tested on: OVCAR-8
# PC-3 = tested on: PC-3
# K562 = tested on: K562
# UACC-62 = tested on: UACC-62
# NCI-H522 = tested on: NCI-H522
# SR = tested on: SR
# HCT-116 = tested on: HCT-116
# MCF7 = tested on: MCF7
# OVCAR-4 = tested on: OVCAR-4
# NCI-H23 = tested on: NCI-H23
# SF-295 = tested on: SF-295
# SN12C = tested on: SN12C
# SF-268 = tested on: SF-268
# Malme-3M = tested on: Malme-3M
# TK-10 = tested on: TK-10
# A498 = tested on: A498
# HOP-62 = tested on: HOP-62
# EKVX = tested on: EKVX
# M14 = tested on: M14
# KM12 = tested on: KM12
# SNB-75 = tested on: SNB-75
# IGROV-1 = tested on: IGROV-1
# U-251 = tested on: U-251
# HCT-15 = tested on: HCT-15
# T47D = tested on: T47D
# HOP-92 = tested on: HOP-92
# HCC 2998 = tested on: HCC 2998
# SK-OV-3 = tested on: SK-OV-3
# NCI-H460 = tested on: NCI-H460
# SW-620 = tested on: SW-620
# SK-MEL-2 = tested on: SK-MEL-2
# MDA-MB-435 = tested on: MDA-MB-435
# MDA-N = tested on: MDA-N
# UACC-257 = tested on: UACC-257
# RXF 393 = tested on: RXF 393
# DU-145 = tested on: DU-145
# HT-29 = tested on: HT-29
# CCRF-CEM = tested on: CCRF-CEM
# CAKI-1 = tested on: CAKI-1
# SK-MEL-5 = tested on: SK-MEL-5
# OVCAR-3 = tested on: OVCAR-3
# OVCAR-5 = tested on: OVCAR-5
# RPMI-8226 = tested on: RPMI-8226
# UO-31 = tested on: UO-31
# LXFL 529 = tested on: LXFL 529
# KM-20L2 = tested on: KM-20L2
# M19-MEL = tested on: M19-MEL
# SNB-78 = tested on: SNB-78
# DLD-1 = tested on: DLD-1
# DMS-114 = tested on: DMS-114
structure (smiles),measurement,setting,value
O=C1C(N2CCN(CCOCCO)CC2)=C(Cl)C(=O)c2ncccc21,GI50,Hs-578T,> 10 µM (inactive)
same,GI50,A549,> 10 µM (inactive)
same,GI50,ACHN,19.1 µM (inactive)
same,GI50,BT-549,4.89 µM (inactive)
same,GI50,SK-MEL-28,22.2 µM (inactive)
same,GI50,MDA-MB-231,19.2 µM (inactive)
same,GI50,SNB-19,> 10 µM (inactive)
same,GI50,LOX IMVI,12.7 µM (inactive)
same,GI50,NCI/ADR-RES,37.4 µM (inactive)
same,GI50,COLO 205,8.28 µM (inactive)
same,GI50,SF-539,21.1 µM (inactive)
same,GI50,HL-60,3.06 µM (inactive)
same,GI50,786-0,21.4 µM (inactive)
same,GI50,MOLT-4,2.37 µM (inactive)
same,GI50,NCI-H226,> 10 µM (inactive)
same,GI50,OVCAR-8,18.1 µM (inactive)
same,GI50,PC-3,20.7 µM (inactive)
same,GI50,K562,3.2 µM (inactive)
same,GI50,UACC-62,21.5 µM (inactive)
same,GI50,NCI-H522,2.08 µM (inactive)
same,GI50,SR,> 10 µM (inactive)
same,GI50,HCT-116,5.71 µM (inactive)
same,GI50,MCF7,3.78 µM (inactive)
same,GI50,OVCAR-4,20.3 µM (inactive)
same,GI50,NCI-H23,20.3 µM (inactive)
same,GI50,SF-295,> 10 µM (inactive)
same,GI50,SN12C,19.5 µM (inactive)
same,GI50,SF-268,20.6 µM (inactive)
same,GI50,Malme-3M,8.77 µM (inactive)
same,GI50,TK-10,29.4 µM (inactive)
same,GI50,A498,> 10 µM (inactive)
same,GI50,HOP-62,> 10 µM (inactive)
same,GI50,EKVX,19.6 µM (inactive)
same,GI50,M14,20.8 µM (inactive)
same,GI50,KM12,> 10 µM (inactive)
same,GI50,SNB-75,38.3 µM (inactive)
same,GI50,IGROV-1,16.9 µM (inactive)
same,GI50,U-251,18.7 µM (inactive)
same,GI50,HCT-15,18.1 µM
same,GI50,T47D,2.58 µM (inactive)
same,GI50,HOP-92,2.62 µM (inactive)
same,GI50,HCC 2998,> 10 µM (inactive)
same,GI50,SK-OV-3,> 10 µM (inactive)
same,GI50,NCI-H460,75.2 µM (inactive)
same,GI50,SW-620,23 µM (inactive)
same,GI50,SK-MEL-2,20.9 µM (inactive)
same,GI50,MDA-MB-435,1.88 µM (inactive)
same,GI50,MDA-N,1.97 µM (inactive)
same,GI50,UACC-257,22 µM (inactive)
same,GI50,RXF 393,20 µM (inactive)
same,GI50,DU-145,52.7 µM (inactive)
same,GI50,HT-29,22.6 µM (inactive)
same,GI50,CCRF-CEM,1.92 µM (inactive)
same,GI50,CAKI-1,17.3 µM (inactive)
same,GI50,SK-MEL-5,16.6 µM (inactive)
same,GI50,OVCAR-3,18.5 µM (inactive)
same,GI50,OVCAR-5,24.5 µM (inactive)
same,GI50,RPMI-8226,19 µM (inactive)
same,GI50,UO-31,17.7 µM (inactive)
C#Cc1ccccc1N1C(=O)C=CC1=O,GI50,A549,> 100 µM (inactive)
same,GI50,ACHN,> 100 µM (inactive)
same,GI50,LXFL 529,> 100 µM (inactive)
same,GI50,SK-MEL-28,> 100 µM (inactive)
same,GI50,SNB-19,> 100 µM (inactive)
same,GI50,COLO 205,> 100 µM (inactive)
same,GI50,HL-60,> 100 µM (inactive)
same,GI50,786-0,> 100 µM (inactive)
same,GI50,MOLT-4,> 100 µM (inactive)
same,GI50,NCI-H226,> 100 µM (inactive)
same,GI50,OVCAR-8,> 100 µM (inactive)
same,GI50,KM-20L2,> 100 µM (inactive)
same,GI50,K562,> 100 µM (inactive)
same,GI50,M19-MEL,> 100 µM (inactive)
same,GI50,UACC-62,> 100 µM (inactive)
same,GI50,NCI-H522,> 100 µM (inactive)
same,GI50,SR,> 100 µM (inactive)
same,GI50,HCT-116,> 100 µM (inactive)
same,GI50,SNB-78,> 100 µM (inactive)
same,GI50,OVCAR-4,> 100 µM (inactive)
same,GI50,NCI-H23,> 100 µM (inactive)
same,GI50,SF-295,> 100 µM (inactive)
same,GI50,SN12C,> 100 µM (inactive)
same,GI50,SF-268,> 100 µM (inactive)
same,GI50,Malme-3M,> 100 µM (inactive)
same,GI50,TK-10,> 100 µM (inactive)
same,GI50,A498,> 100 µM (inactive)
same,GI50,HOP-62,> 100 µM (inactive)
same,GI50,EKVX,> 100 µM (inactive)
same,GI50,M14,> 100 µM (inactive)
same,GI50,SNB-75,> 100 µM (inactive)
same,GI50,DLD-1,> 100 µM (inactive)
same,GI50,IGROV-1,> 100 µM (inactive)
same,GI50,U-251,> 100 µM (inactive)
same,GI50,DMS-114,> 100 µM (inactive)
same,GI50,SK-OV-3,> 100 µM (inactive)
same,GI50,NCI-H460,> 100 µM (inactive)
same,GI50,SW-620,> 100 µM (inactive)
same,GI50,SK-MEL-2,> 100 µM (inactive)
same,GI50,UACC-257,> 100 µM (inactive)
same,GI50,HT-29,> 100 µM (inactive)
same,GI50,CCRF-CEM,> 100 µM (inactive)
same,GI50,CAKI-1,> 100 µM (inactive)
same,GI50,SK-MEL-5,> 100 µM (inactive)
same,GI50,OVCAR-3,> 100 µM (inactive)
same,GI50,OVCAR-5,> 100 µM (inactive)
same,GI50,RPMI-8226,> 100 µM (inactive)
same,GI50,UO-31,> 100 µM (inactive)
